From patent US20240158348A1, “HERBICIDAL CYCLIC AMIDES N-SUBSTITUTED WITH A HALOALKYLSULFONYLANILIDE GROUP” (FMC Corporation, priority 2021, published 2024)

How the values were obtained:
Type in all cases: in vivo
[1] = tested on: barnyardgrass (Echinochloa crusgalli); assay: Test B flooded paddy test, barnyardgrass; settings: Echinochloa crus-galli; 250 g ai/ha, Flood; scale of 0 to 100 where 0 is no effect and 100 is complete control; visually evaluated after 10 to 14 days; read-out: Plant response rating, Barnyardgrass
Method: (§1) Plant species in the flooded paddy test selected from barnyardgrass (Echinochloa crusgalli), ducksalad (Heteranthera limosa), rice (Oryza sativa), and sedge, umbrella (small-flower umbrella sedge, Cyperus difformis) were grown to the 2-leaf stage for testing. At time of treatment, test pots were flooded to 3 cm above the soil surface, treated by application of test compounds directly to the paddy water, and then maintained at that water depth for the duration of the test. Treated plants and controls were maintained in a greenhouse for 10 to 14 days, after which time all species were compared to controls and visually evaluated. Plant response ratings, summarized in Table B, are based on a scale of 0 to 100 where 0 is no effect and 100 is complete control. A dash (-) response means no test result.

[2] = tested on: wheat (Triticum aestivum); assay: Test A postemergence, wheat; settings: post-emergence, 240 h, 0 to 100 scale, 10 days, read-out: Plant response rating, Wheat; for plant injury at 31 g/ha: 31 g ai/ha; for plant injury at 125 g/ha: 125 g ai/ha
Excerpt: (§2) Seeds of plant species selected from barnyardgrass (Echinochloa crus-galli), blackgrass (Alopecurus myosuroides), corn (Zea mays), foxtail, giant (giant foxtail, Setaria faberi), goosegrass (Eleusine indica), kochia (Bassia scoparia), oat, wild (wild oat, Avena fatua), pigweed, palmer (palmer amaranth, Amaranthus palmeri), pigweed, redroot (redroot pigweed, Amaranthus retroflexus), ragweed (common ragweed, Ambrosia artemisiifolia), ryegrass, Italian (Italian ryegrass, Lolium multiflorum), soybean (Glycine max), and wheat (Triticum aestivum) were planted into a blend of loam soil and sand and treated preemergence with a directed soil spray using test chemicals formulated in a non-phytotoxic solvent mixture which included a surfactant.
(§3) At the same time, plants selected from these crop and weed species and also galium (catchweed bedstraw, Galium aparine) and horseweed (Erigeron canadensis) were planted in pots containing the same blend of loam soil and sand and treated with postemergence applications of test chemicals formulated in the same manner. Plants ranged in height from 2 to 10 cm and were in the one- to two-leaf stage for the postemergence treatment. Treated plants and untreated controls were maintained in a greenhouse for 10 days, after which time all treated plants were compared to untreated controls and visually evaluated for injury. Plant response ratings, summarized in Table A, are based on a 0 to 100 scale where 0 is no effect and 100 is complete control. A dash (-) response means no test result.

[3] = tested on: ragweed (common ragweed, Ambrosia artemisiifolia); assay: Test A postemergence, ragweed; settings: post-emergence, 240 h, 0 to 100 scale, 10 days, read-out: Plant response rating, Ragweed; for pest or weed control at 31 g/ha: 31 g ai/ha; for pest or weed control at 125 g/ha: 125 g ai/ha
Excerpt: as §2, §3

[4] = tested on: kochia (Bassia scoparia); assay: Test A preemergence, kochia; settings: pre-emergence, 240 h, 0 to 100 scale, 10 days, read-out: Plant response rating, Kochia; for pest or weed control at 31 g/ha: 31 g ai/ha; for pest or weed control at 125 g/ha: 125 g ai/ha
Excerpt: as §2, §3

[5] = tested on: blackgrass (Alopecurus myosuroides); assay: Test A postemergence, blackgrass; settings: 0 to 100 scale, 10 days
Excerpt: as §2, §3

[6] = tested on: galium (catchweed bedstraw, Galium aparine); assay: Test A postemergence, galium; settings: post-emergence, 240 h, 0 to 100 scale, 10 days, read-out: Plant response rating, Galium; for pest or weed control at 31 g/ha: 31 g ai/ha; for pest or weed control at 125 g/ha: 125 g ai/ha
Excerpt: as §2, §3

[7] = tested on: rice (Oryza sativa); assay: Test B flooded paddy test, rice; settings: 250 g ai/ha, Flood, scale of 0 to 100 where 0 is no effect and 100 is complete control, visually evaluated after 10 to 14 days, read-out: Plant response rating, Rice
Method: as §1

[8] = tested on: soybean (Glycine max); assay: Test A postemergence, soybean; settings: 0 to 100 scale, 10 days
Excerpt: as §2, §3

[9] = tested on: ryegrass, Italian (Italian ryegrass, Lolium multiflorum); assay: Test C postemergence, Italian ryegrass
Procedure, shortened: (§4)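 Visual injury rating, 0 (no effect) to 100 (complete control), versus untreated controls after 10 or 12 days in the greenhouse. Compounds were formulated in non-phytotoxic solvent plus surfactant and applied either as a directed soil spray at sowing or onto emerged one- to two-leaf plants.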

[10] = tested on: blackgrass (Alopecurus myosuroides); assay: Test C postemergence, blackgrass; settings: 125 g ai/ha Postemergence; 0 is no effect, 100 is complete control
[11] = tested on: kochia (Bassia scoparia); assay: Test C preemergence, kochia; settings: 0 is no effect, 100 is complete control
Procedure, shortened: as §4

Row | SMILES | pest or weed control at 250 g/ha [1] [%] | plant injury at 31 g/ha [2] [%] | plant injury at 125 g/ha [2] [%] | pest or weed control at 31 g/ha [3] [%] | pest or weed control at 125 g/ha [3] [%] | pest or weed control at 31 g/ha [4] [%] | pest or weed control at 125 g/ha [4] [%] | Plant response rating, Blackgrass ([5]; 31 g ai/ha) | Plant response rating, Blackgrass ([5]; 125 g ai/ha) | pest or weed control at 31 g/ha [6] [%] | pest or weed control at 125 g/ha [6] [%] | plant injury at 250 g/ha [7] [%] | Plant response rating, Soybean ([8]; 31 g ai/ha) | Plant response rating, Soybean ([8]; 125 g ai/ha) | Ryegrass, Italian plant response rating ([9]; 31 g ai/ha Postemergence, visual injury, 0 to 100 scale (0 no effect, 100 complete control)) | Plant response rating (0 to 100 scale), Ryegrass, Italian ([9]; 125 g ai/ha Postemergence, 0 is no effect, 100 is complete control) | Plant response rating (0 to 100 scale), Blackgrass [10] | Plant response rating (0 to 100 scale), Kochia ([11]; 31 g ai/ha Preemergence) | Plant response rating (0 to 100 scale), Kochia ([11]; 125 g ai/ha Preemergence)
1 | C=CCOC1CCN(c2cc(NS(=O)(=O)C(F)(F)F)c(C)cc2C)C1=O (stereo not drawn) [Compound 2, N-[2,4-dimethyl-5-[2-oxo-3-(2-propen-1-yloxy)-1-pyrrolidinyl]phenyl]-1,1,1-trifluoromethanesulfonamide] | 40 | 70 | 70 | 50 | 70 | 50 | 90 | 20 | 40 | 80 | 100 | 10 | – | – | – | – | – | – | –
2 | Cc1cc(C)c(N(COC(=O)C(C)(C)C)S(=O)(=O)C(F)(F)F)cc1N1CCC(OC2CCC2)C1=O (stereo not drawn) [Compound 8, [[5-[3-(cyclobutyloxy)-2-oxo-1-pyrrolidinyl]-2,4-dimethylphenyl][(trifluoromethyl)sulfonyl]amino]methyl 2,2-dimethylpropanoate] | 98 | 60 | 70 | 70 | 90 | 0 | 100 | 30 | 40 | 100 | 100 | 35 | 60 | 90 | – | – | – | – | –
3 | Cc1cc(C)c(N2CCC(OC3CCCC3)C2=O)cc1NS(=O)(=O)C(F)(F)F (stereo not drawn) [Compound 6, N-[5-[3-(cyclopentyloxy)-2-oxo-1-pyrrolidinyl]-2,4-dimethylphenyl]-1,1,1-trifluoromethanesulfonamide] | 30 | 60 | 60 | 60 | 90 | 30 | 90 | 0 | 40 | 80 | 90 | 10 | 70 | 70 | – | – | – | – | –
4 | C#CCOC1CCN(c2cc(NS(=O)(=O)C(F)(F)F)c(C)cc2C)C1=O (stereo not drawn) [Compound 1, N-[2,4-dimethyl-5-[2-oxo-3-(2-propyn-1-yloxy)-1-pyrrolidinyl]phenyl]-1,1,1-trifluoromethanesulfonamide] | 60 | 60 | 70 | 60 | 80 | 70 | 100 | 10 | 50 | 80 | 100 | 30 | – | – | – | – | – | – | –
5 | Cc1cc(C)c(N(COC(=O)C(C)(C)C)S(=O)(=O)C(F)(F)F)cc1N1CCC(OC2CC2)C1=O (stereo not drawn) [Compound 7, [[5-[3-(cyclopropyloxy)-2-oxo-1-pyrrolidinyl]-2,4-dimethylphenyl][(trifluoromethyl)sulfonyl]amino]methyl 2,2-dimethylpropanoate] | 98 | 30 | 60 | 90 | 90 | 60 | 100 | 20 | 50 | 90 | 100 | 30 | 90 | 90 | – | – | – | – | –
6 | Cc1cc(C)c(N(C(=O)OCC(C)C)S(=O)(=O)C(F)(F)F)cc1N1CCC(OC2CC2)C1=O (stereo not drawn) [Compound 21] | – | – | – | – | – | – | – | – | – | – | – | – | – | – | 50 | 100 | 80 | 60 | 90
7 | Cc1cc(C)c(N2CCC(OC3CCC3)C2=O)cc1NS(=O)(=O)C(F)(F)F (stereo not drawn) [Compound 4, N-[5-[3-(cyclobutyloxy)-2-oxo-1-pyrrolidinyl]-2,4-dimethylphenyl]-1,1,1-trifluoromethanesulfonamide] | 45 | 50 | 50 | 70 | 90 | 70 | 100 | – | – | 100 | 100 | 0 | 50 | 70 | – | – | – | – | –
8 | Cc1cc(C)c(N(COC(=O)C(C)(C)C)S(=O)(=O)C(F)(F)F)cc1N1CCC(OC2CCCC2)C1=O (stereo not drawn) [Compound 5, [[5-[3-(cyclopentyloxy)-2-oxo-1-pyrrolidinyl]-2,4-dimethylphenyl][(trifluoromethyl)sulfonyl]amino]methyl 2,2-dimethylpropanoate] | 95 | 0 | 50 | 60 | 80 | 0 | 60 | 0 | 0 | 60 | 90 | 0 | 60 | 70 | – | – | – | – | –
9 | Cc1cc(C)c(N2CCC(OC3CC3)C2=O)cc1NS(=O)(=O)C(F)(F)F (stereo not drawn) [Compound 3, N-[5-[3-(cyclopropyloxy)-2-oxo-1-pyrrolidinyl]-2,4-dimethylphenyl]-1,1,1-trifluoromethanesulfonamide] | 90 | 80 | 80 | 80 | 90 | 100 | 100 | 40 | 70 | 70 | 100 | 50 | 60 | 70 | – | – | – | – | –
